Results as given in PMC12210405, “Identification of chemical scaffolds for targeting ubiquitin-specific protease 11 (USP11) through high-throughput virtual screening” (Journal of Enzyme Inhibition and Medicinal Chemistry, 2025).

Assays:
GST-USP11 [1] = biological target: T1, GST-USP11 (Homo sapiens, UniProt P51784); assay: Fluorescence-based deubiquitinating enzyme activity assay (Ub-AMC fluorogenic substrate); assay type: biochemical; settings: for inhibition at 25 µM: read-out: Percent inhibition of USP11
T1 construct: The plasmids containing the intact USP11 gene were introduced into E. coli BL21-CodonPlus (DE3); made in house; host or cells: E. coli BL21-CodonPlus (DE3)
Description: The deubiquitinating enzyme (DUB) activity of USP11 was monitored using Ubiquitin AMC (Ub-AMC) (#U-550–050, R&D Systems, Minneapolis, MN, USA) as a fluorogenic substrate. […] USP11 DUB activity of vehicle control or each compound group was quantified by calculating the area under curve (AUC) using Prism 9 software (GraphPad, Boston, MA, USA).
Using a -fluorogenic substrate assay with ubiquitin 7-amido-4-methylcoumarin (Ub-AMC), we tested varying concentrations of both the protein and the substrate. […] Hits were defined as compounds that inhibited enzyme activity by more than 40%, as determined by fluorescence intensity at the 90-min endpoint.

USP15 = settings: cited from earlier work
GST-USP11 [2] = biological target: T1, GST-USP11; assay: Biolayer interferometry (BLI) assay; assay type: binding
Experimental: The binding affinities of tested compounds for USP11 were determined using BRAND® microplates (#BR781608, Merck, Darmstadt, Germany) and an Octet® R8 system (Sartorius AG, Göttingen, Germany). Octet GST Biosensors (#18–5096, Sartorius AG, Göttingen, Germany) captured with purified GST-USP11 (50 μg/ml) or without proteins were used as ligand sensors or reference sensors, respectively. For binding kinetic measurements, the association and dissociation of tested compounds (3.125–100 μM) in assay buffer (PBS, 0.02% Tween 20, 2% DMSO) were monitored at 25 °C with 1,000 rpm stirring for 90 s. For accurate baseline, wells containing assay buffer only were used as reference wells. All data were analysed by Octet BLI analysis software version 12.2 (Sartorius AG, Göttingen, Germany). The binding graphs were obtained using a double reference subtraction protocol and equilibrium dissociation constant (KD) values were calculated from the ratio of the dissociation rate constant (Kdis) to the association rate constant (Kon).

[3] = compound 25 µM, 90-min endpoint, Ub-AMC

T1 sequence (P51784 whole entry): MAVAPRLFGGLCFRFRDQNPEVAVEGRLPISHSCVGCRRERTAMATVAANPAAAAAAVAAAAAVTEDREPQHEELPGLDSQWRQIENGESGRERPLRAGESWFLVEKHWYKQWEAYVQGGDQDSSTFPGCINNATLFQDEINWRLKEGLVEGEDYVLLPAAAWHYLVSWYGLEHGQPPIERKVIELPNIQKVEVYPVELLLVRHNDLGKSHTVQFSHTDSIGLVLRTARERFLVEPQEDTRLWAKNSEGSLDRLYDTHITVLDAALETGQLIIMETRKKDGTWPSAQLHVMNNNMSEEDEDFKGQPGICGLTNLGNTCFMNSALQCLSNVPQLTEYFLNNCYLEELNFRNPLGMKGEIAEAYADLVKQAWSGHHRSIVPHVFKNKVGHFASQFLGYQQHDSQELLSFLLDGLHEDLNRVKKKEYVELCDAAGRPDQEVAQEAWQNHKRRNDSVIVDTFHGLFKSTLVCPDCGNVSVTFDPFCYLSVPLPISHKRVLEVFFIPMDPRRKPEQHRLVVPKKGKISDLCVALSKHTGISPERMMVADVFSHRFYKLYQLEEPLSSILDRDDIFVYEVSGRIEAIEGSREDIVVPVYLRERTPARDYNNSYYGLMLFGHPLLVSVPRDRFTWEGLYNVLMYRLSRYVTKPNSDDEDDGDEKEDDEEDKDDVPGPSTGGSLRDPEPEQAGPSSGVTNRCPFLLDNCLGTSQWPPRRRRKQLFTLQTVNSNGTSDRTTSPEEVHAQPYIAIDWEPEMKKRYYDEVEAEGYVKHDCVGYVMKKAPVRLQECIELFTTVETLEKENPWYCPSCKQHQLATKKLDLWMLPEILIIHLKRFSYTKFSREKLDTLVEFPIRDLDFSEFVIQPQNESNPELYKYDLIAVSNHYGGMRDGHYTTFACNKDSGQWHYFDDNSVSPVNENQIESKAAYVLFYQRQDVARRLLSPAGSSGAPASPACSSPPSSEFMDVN

inhibition at 25 µM (GST-USP11 [1]; [3]) | SMILES | other results
89.9% | CCCCOc1cc(/C=C/C(=O)N2CCN(c3ccc(NC(=N)c4ccc[nH]4)cc3)CC2)cc(OCCCC)c1O [Compound 73f] | IC50 (GST-USP11 [1]; USP11, Figure S6): 19.4 µM
16.8% | CN(c1ccc(C=O)cc1)c1cccc2c1C(=O)c1ccccc1C2=O [Compound 74e] | –
6.51% | O=C1c2ccccc2C(=O)c2c1cc(N1CCOCC1)cc2N1CCCCC1 [Compound 74g] | –
76.8% | CCOc1cc(/C=C/C(=O)N2CCN(c3ccc(NC(=N)c4ccc[nH]4)cc3)CC2)cc(OCC)c1O [Compound 73c] | –
27.9% | O=[N+]([O-])c1c(N2CCCCC2)cc(N2CCCCC2)c2nonc12 [Compound 18d] | –
38.1% | Nc1ccc(O)c2c1C(=O)c1c(cccc1[N+](=O)[O-])C2=O [Compound 74c] | –
23% | CCCCCOc1cc(CN2CCN(c3ccc(NC(=N)c4cccs4)cc3)CC2)cc(OCCCCC)c1O [Compound 73d] | –
38.1% | CCOc1cc(CN2CCN(c3ccc(NC(=N)c4ccc[nH]4)cc3)CC2)cc(OCC)c1O [Compound 73b] | –
– | O=C1c2c(O)ccc(O)c2C(=O)c2c(NCCNCCO)ccc(NCCNCCO)c21 [Mitoxantrone, mitoxantrone] | USP15 inhibition in words (USP15): also inhibits USP15
7.38% | Nc1ccc(NC(=O)c2ccccc2)c2c1C(=O)c1ccccc1C2=O [Compound 74f] | –
7.89% | N#CC1CCCN1C(=O)CNCCN1CCN(c2ccc([N+](=O)[O-])c3nonc23)CC1 (centres unmarked) [Compound 18h] | –
0% | CCOC(=O)CCNc1ccc(Nc2ccc(C)cc2)c2c1C(=O)c1ccccc1C2=O [Compound 74d] | –
90.3% | CCCCCOc1cc(CN2CCN(c3ccc(NC(=N)c4ccc[nH]4)cc3)CC2)cc(OCCCCC)c1O [Compound 73a] | IC50 (GST-USP11 [1]; USP11, Figure S6): 17.5 µM
41.5% | O=C(CCc1ccc(F)cc1)N/N=C/c1ccc(O)c(O)c1O [Compound 29] | –
– | CC(C)[C@@H](CC[C@@H](C)[C@H]1CC[C@H]2[C@@H]3[C@H](O)C[C@H]4C[C@@H](NCCCNCCCCN)CC[C@]4(C)[C@H]3CC[C@]12C)OS(=O)(=O)O [Squalamine, squalamine] | Percent inhibition of USP11 (GST-USP11 [1]; [3]): completely inhibits; IC50 (GST-USP11 [1]; recombinant USP11): 8.29 µM; Kd (GST-USP11 [2]): 459 µM; kon (GST-USP11 [2]; Figure 3c): 1380 M⁻¹ s⁻¹; koff (GST-USP11 [2]; Figure 3c, read-out: Kdis): 0.634 s⁻¹
23% | CCCCOc1cc(CN2CCN(c3ccc(NC(=N)c4cccs4)cc3)CC2)cc(OCCCC)c1O [Compound 73e] | –
58.4% | NCCNc1ccc(NCCN)c2c1C(=O)c1ccncc1C2=O [Compound 74a] | –
43.9% | CCCCOc1cc(CN2CCN(c3ccc(NC(=N)c4ccc[nH]4)cc3)CC2)cc(OCCCC)c1O [Compound 73] | –

SMILES | inhibition at 25 µM (GST-USP11 [1]; [3]) | other results
N#CC1CCCN1C(=O)CNC1CCC(Nc2ccc([N+](=O)[O-])c3nonc23)CC1 (centres unmarked) [Compound 18f] | 23.8% | –
N#CC1CC=NN1C(=O)CNC1CCC(Nc2ccc([N+](=O)[O-])c3nonc23)CC1 (centres unmarked) [Compound 18g] | 70.9% | –
N#CC1CCCN1C(=O)CNC1CCCN(c2ccc([N+](=O)[O-])c3nonc23)C1 (centres unmarked) [Compound 18] | 55.8% | –
O=[N+]([O-])c1ccc(N2CCCCCC2)c2nonc12 [Compound 18c] | 36.9% | –
O=[N+]([O-])c1ccc(N2CCCC2)c2nonc12 [Compound 18a] | 15% | –
CC(CO)C1CCC2C3C(CCC12C)C1(C)CCC(NCCCCN)C[C@@H]1C[C@H]3O (some centres unmarked) [Compound 57] | 44.8% | –
O=[N+]([O-])c1ccc(N2CCCCC2)c2nonc12 [Compound 18b] | 3.3% | –
NC1CCC(Nc2ccc([N+](=O)[O-])c3nonc23)CC1 (centres unmarked) [Compound 18e] | 64.8% | –
